Measurements taken from article PMC6704710, “Preclinical evaluation of 3D185, a novel potent inhibitor of FGFR1/2/3 and CSF-1R, in FGFR-dependent and macrophage-dominant cancer models” (Journal of Experimental & Clinical Cancer Research : CR, 2019).

Legend:
Assay in all cases: Eurofins kinase panel
Assay type in all cases: biochemical
Axl(h) = biological target: T1, Axl(h) (Homo sapiens, UniProt P30530); conditions: read-out: Inhibition rate (%)
T1 construct: purchased Eurofins (KinaseProfiler)
T1 sequence (P30530 26-894): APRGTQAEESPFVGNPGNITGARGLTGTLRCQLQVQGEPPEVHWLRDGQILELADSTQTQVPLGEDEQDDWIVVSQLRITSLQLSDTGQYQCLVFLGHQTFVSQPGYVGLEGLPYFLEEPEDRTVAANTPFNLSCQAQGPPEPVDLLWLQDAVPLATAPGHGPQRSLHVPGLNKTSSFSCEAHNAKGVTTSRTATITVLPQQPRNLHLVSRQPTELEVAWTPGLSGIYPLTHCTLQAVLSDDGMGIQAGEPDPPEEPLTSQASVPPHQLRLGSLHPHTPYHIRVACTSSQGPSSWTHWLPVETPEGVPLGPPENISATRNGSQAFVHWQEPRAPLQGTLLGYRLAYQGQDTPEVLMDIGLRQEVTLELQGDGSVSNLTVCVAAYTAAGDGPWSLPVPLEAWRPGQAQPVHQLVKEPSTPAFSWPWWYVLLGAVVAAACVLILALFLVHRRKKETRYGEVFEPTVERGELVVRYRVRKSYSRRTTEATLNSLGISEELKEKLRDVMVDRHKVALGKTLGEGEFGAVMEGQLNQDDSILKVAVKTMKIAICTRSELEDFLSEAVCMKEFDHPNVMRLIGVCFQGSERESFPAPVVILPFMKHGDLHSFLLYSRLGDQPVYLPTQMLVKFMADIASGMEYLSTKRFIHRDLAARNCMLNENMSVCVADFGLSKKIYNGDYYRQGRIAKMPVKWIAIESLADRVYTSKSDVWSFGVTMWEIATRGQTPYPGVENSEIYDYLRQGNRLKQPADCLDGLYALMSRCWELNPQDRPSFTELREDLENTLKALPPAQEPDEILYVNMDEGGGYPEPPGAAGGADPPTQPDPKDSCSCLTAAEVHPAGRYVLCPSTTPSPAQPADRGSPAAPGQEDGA

FGFR2(h) = FGFR2(h) (Homo sapiens, UniProt P21802)
Sequence of FGFR2(h) (P21802 22-821): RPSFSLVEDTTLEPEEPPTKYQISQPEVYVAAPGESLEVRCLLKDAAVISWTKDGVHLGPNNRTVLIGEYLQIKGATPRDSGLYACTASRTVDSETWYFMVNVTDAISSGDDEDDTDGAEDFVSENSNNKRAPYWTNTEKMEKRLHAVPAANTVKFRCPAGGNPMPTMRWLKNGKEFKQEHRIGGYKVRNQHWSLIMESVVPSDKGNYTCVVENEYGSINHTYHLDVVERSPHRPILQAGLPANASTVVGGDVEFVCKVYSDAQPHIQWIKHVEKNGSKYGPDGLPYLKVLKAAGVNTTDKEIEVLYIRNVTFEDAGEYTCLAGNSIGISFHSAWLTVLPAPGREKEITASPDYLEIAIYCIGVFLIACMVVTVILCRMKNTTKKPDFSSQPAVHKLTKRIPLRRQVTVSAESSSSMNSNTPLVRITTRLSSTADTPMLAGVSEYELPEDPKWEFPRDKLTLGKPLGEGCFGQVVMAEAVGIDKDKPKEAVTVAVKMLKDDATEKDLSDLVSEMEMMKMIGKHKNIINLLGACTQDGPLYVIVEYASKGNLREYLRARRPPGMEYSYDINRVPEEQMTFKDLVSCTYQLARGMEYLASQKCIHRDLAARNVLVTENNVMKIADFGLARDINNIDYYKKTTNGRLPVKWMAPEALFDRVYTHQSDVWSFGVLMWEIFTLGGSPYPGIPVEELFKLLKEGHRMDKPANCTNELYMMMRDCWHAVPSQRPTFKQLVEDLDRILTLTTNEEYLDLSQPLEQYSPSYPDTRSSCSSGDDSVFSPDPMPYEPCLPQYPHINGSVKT

LKB1(h) = biological target: T2, LKB1(h) (Homo sapiens, UniProt Q15831); conditions: read-out: Inhibition rate (%)
T2 construct: purchased Eurofins (KinaseProfiler)
T2 sequence (Q15831 1-433): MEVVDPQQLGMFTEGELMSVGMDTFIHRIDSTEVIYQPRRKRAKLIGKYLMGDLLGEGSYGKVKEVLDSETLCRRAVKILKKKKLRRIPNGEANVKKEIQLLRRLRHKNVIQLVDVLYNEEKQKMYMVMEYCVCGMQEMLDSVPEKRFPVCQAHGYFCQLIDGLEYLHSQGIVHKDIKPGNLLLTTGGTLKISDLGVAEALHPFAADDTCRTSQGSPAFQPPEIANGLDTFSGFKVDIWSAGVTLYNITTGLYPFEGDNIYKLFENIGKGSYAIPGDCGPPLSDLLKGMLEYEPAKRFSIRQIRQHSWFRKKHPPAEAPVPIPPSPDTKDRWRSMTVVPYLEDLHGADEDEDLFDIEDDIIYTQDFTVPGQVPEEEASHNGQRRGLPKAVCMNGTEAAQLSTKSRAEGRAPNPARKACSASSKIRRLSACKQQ
T2 sequence (Q7RTN6 1-431 partner): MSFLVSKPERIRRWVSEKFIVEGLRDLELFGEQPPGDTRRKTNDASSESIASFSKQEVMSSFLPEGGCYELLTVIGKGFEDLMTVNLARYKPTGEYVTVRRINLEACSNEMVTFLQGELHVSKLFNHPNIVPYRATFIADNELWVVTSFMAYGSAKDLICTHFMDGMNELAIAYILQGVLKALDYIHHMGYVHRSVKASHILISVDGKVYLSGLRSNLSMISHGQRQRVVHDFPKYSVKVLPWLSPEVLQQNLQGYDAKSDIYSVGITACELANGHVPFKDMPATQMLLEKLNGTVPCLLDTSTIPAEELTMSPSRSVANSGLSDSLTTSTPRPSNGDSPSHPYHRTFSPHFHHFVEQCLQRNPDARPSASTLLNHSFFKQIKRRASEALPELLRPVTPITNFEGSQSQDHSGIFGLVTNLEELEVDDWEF
T2 sequence (Q9Y376 1-341 partner): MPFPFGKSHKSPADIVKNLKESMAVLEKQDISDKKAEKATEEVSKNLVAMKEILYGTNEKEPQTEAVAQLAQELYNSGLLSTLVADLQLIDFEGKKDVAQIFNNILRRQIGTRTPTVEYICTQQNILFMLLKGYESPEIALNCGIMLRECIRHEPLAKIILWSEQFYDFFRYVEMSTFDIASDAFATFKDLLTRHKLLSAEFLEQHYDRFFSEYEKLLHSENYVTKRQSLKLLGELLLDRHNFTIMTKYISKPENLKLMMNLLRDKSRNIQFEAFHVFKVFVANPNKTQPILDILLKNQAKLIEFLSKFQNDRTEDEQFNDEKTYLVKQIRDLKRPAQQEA

PDGFRα(V561D)(h) = biological target: T3, PDGFRα(V561D)(h) (Homo sapiens, UniProt P16234, V561D); conditions: read-out: Inhibition rate (%)
T3 construct: purchased Eurofins (KinaseProfiler)
T3 sequence (P16234 24-1089 V561D): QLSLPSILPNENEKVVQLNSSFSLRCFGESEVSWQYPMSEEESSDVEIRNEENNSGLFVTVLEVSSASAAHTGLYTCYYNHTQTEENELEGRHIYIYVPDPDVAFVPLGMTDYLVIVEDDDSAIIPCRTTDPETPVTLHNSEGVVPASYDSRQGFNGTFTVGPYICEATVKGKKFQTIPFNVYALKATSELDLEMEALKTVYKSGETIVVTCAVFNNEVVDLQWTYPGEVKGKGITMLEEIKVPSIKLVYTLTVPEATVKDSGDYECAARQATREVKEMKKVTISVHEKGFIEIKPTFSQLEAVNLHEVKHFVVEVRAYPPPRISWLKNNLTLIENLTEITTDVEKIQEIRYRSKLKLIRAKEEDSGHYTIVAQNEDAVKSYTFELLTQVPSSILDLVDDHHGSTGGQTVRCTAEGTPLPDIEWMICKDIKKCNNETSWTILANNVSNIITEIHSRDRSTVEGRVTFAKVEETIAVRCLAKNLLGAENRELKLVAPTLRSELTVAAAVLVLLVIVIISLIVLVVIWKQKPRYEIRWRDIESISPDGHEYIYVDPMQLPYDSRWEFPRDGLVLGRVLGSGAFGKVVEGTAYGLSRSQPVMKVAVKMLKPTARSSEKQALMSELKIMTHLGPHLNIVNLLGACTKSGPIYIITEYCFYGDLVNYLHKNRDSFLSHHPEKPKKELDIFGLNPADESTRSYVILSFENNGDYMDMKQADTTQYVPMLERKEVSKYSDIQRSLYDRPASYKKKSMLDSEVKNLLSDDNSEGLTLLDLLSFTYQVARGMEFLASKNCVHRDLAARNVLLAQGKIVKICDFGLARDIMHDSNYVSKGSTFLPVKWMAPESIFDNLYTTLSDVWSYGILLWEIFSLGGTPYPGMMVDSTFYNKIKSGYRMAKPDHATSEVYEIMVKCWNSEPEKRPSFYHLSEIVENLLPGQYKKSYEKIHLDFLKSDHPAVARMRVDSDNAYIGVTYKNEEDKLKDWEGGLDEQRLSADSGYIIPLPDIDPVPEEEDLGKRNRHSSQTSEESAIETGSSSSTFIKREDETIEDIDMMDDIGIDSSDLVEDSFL

Yes(h) = biological target: T4, Yes(h) (Homo sapiens, UniProt P07947); conditions: read-out: Inhibition rate (%)
T4 construct: purchased Eurofins (KinaseProfiler)
T4 sequence (P07947 whole entry): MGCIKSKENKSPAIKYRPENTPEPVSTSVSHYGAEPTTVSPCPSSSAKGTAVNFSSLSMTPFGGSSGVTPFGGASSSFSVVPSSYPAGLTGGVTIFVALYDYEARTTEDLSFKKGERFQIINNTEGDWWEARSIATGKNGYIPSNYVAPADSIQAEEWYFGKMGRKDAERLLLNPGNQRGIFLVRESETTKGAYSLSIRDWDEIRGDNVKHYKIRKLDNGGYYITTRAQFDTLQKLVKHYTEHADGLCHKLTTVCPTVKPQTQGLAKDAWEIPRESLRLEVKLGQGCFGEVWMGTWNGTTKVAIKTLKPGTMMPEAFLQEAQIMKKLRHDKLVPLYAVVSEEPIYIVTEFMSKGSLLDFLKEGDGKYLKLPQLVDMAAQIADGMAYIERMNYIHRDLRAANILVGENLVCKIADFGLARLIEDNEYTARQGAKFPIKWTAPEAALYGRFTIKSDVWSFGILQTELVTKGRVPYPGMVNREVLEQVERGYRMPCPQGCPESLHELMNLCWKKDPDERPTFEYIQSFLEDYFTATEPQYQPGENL

`COc1cc(OC)c(Cl)c(-c2ccc3c(NC(=O)c4ccc(N5CCNC(C)(C)C5)cc4)n[nH]c3n2)c1Cl` [3D185] was tested, and the inhibition at 0.01 µM (Axl(h); 10 nM) was -7%, the inhibition at 0.1 µM (Axl(h); 100 nM) was -9% and the inhibition at 1 µM (Axl(h); 1000 nM) was 26%. For the same molecule, the IC50 (FGFR2(h); estimated from 372-kinase panel) was < 10 nM, the inhibition at 0.01 µM (FGFR2(h); read-out: Inhibition rate (%)) was 93% and the inhibition at 0.1 µM (FGFR2(h); read-out: Inhibition rate (%)) was 98%. For the same molecule, the inhibition at 1 µM (FGFR2(h); read-out: Inhibition rate (%)) was 100%, the inhibition at 0.01 µM (LKB1(h); 10 nM) was -9% and the inhibition at 0.1 µM (LKB1(h); 100 nM) was 7%. It also gave an inhibition at 1 µM (LKB1(h); 1000 nM) of 2%, an inhibition at 0.01 µM (PDGFRα(V561D)(h); 10 nM) of 5% and an inhibition at 0.1 µM (PDGFRα(V561D)(h); 100 nM) of 23%. For the same molecule, the inhibition at 1 µM (PDGFRα(V561D)(h); 1000 nM) was 57%, the inhibition at 0.01 µM (Yes(h); 10 nM) was 10% and the inhibition at 0.1 µM (Yes(h); 100 nM) was 66%. It also gave an inhibition at 1 µM (Yes(h); 1000 nM) of 97%.
